“Also recorded” adds a separate entry of the source. One block for each molecule: values may come before it.
Columns and labels:
[1] = test system: AMPK holoenzyme purified from rat liver; experiment: In vitro kinase assay, AMPK holoenzyme purified from rat liver with GST-MRLC / GST-ACC2 substrates; format: biochemical; details: 0.3 mM AMP; for Phosphorylation of MRLC by AMPK in presence of inhibitor (32P autoradiography): 10 μM drug added to reaction mixture, GST-MRLC substrate
Description: (§1) Fly strains. AMPK^D1 and AMPKD2 lines were generated by imprecise excision (Lee, et al., FEBS Lett. 550, 5-10 (2003)) of AMPK^G505 line (GenExel Inc.). UAS constructs were microinjected into w^1118 embryos. LKB1- and MRLC-mutant lines were described previously (Jordan et al., J. Cell Biol. 139, 1805-1819 (1997); (Karess et al., Cell 65, 1177-1189 (1991); (Lee et al., Cell Death Differ. 13, 110-1122 (2006)). Other lines were obtained from the Bloomington Stock Center. Microscopic analyses of Drosophila tissues. Dark field, phase contrast, and SEM analyses were performed to visualize embryonic cuticle structure. Immunostaining with various antibodies were performed to visualize embryonic epithelial structure. Brain squash preparation was used to analyze genomic integrity. Kinase assays. Phosphotransferase activities were determined in a reaction mixture consisting of HEPES-Brij Buffer, ATP (γ-^32P), and protein substrates. Protein levels were visualized by immunoblot or Coomassie staining. Phosphorylated proteins were visualized by phospho-specific immunoblot or ^32P-autoradiography. Incorporated phosphates were quantified using P81 filter binding assay. Drosophila strains. The AMPK^G505 fly line with an EP-element inserted at the AMPK locus was obtained from the Genisys Collection of EP lines (GenExel Inc., Korea), and subjected to standard imprecise excision (Lee, et al., FEBS Lett. 550, 5-10 (2003); (Lee et al., Cell Death Differ. 13, 110-1122 (2006)). HA-tagged AMPK (AMPK^WT) and its mutant forms (AMPK^KR, AMPK^TA and AMPK^TD) were subcloned into the pUAST vector and microinjected into w^1118 embryos. LKB1^X5, UAS-LKB1, spaghetti-squash^1 (sqh^1), and MRLC^EE (also referred to as sqh^EE) lines were described previously (Jordan et al., J. Cell Biol. 139, 1805-1819 (1997); (Karess et al., Cell 65, 1177-1189 (1991); (Lee et al., Cell Death Differ. 13, 110-1122 (2006)). […] Deletion sites of AMPK^D1 and AMPK^D2 were determined by genomic-PCR analyses. […]

[2] = test system: Drosophila S2 cells; experiment: Energy deprivation-induced MRLC phosphorylation in Drosophila S2 cells (immunoblot); format: cell-based; details: 50 mM 2DG for 4 hr
[3] = test system: LS174T cells; experiment: Polarization of LS174T cells (actin, polarity markers, brush border); format: cell-based, human
[4] = test system: LS174T cells; experiment: AMPK and MRLC phosphorylation in LS174T cells (immunoblot / immunostaining); format: cell-based, human
[5] = test system: Drosophila AMPK (dAMPK); experiment: In vitro kinase assay, immunoprecipitated Drosophila AMPK with MRLC substrate; format: biochemical; details: 10 μM drug added to reaction solution
Description: as §1, with “strains.” for “strains. The AMPK^G505 fly line with an EP-element inserted at the AMPK locus was obtained from the Genisys Collection of EP lines (GenExel Inc., Korea), and subjected to standard imprecise excision (Lee, et al., FEBS Lett. 550, 5-10 (2003); (Lee et al., Cell Death Differ. 13, 110-1122 (2006)). HA-tagged AMPK (AMPK^WT) and its mutant forms (AMPK^KR, AMPK^TA and AMPK^TD) were subcloned into the pUAST vector and microinjected into w^1118 embryos. LKB1^X5, UAS-LKB1, spaghetti-squash^1 (sqh^1), and MRLC^EE (also referred to as sqh^EE) lines were described previously (Jordan et al., J. Cell Biol. 139, 1805-1819 (1997); (Karess et al., Cell 65, 1177-1189 (1991); (Lee et al., Cell Death Differ. 13, 110-1122 (2006)).”

[6] = test system: human AMPK (hAMPK); experiment: In vitro kinase assay, immunoprecipitated human AMPK with MRLC substrate; format: biochemical; details: 10 μM drug added to reaction solution
Description: as §1, with “strains.” for “strains. The AMPK^G505 fly line with an EP-element inserted at the AMPK locus was obtained from the Genisys Collection of EP lines (GenExel Inc., Korea), and subjected to standard imprecise excision (Lee, et al., FEBS Lett. 550, 5-10 (2003); (Lee et al., Cell Death Differ. 13, 110-1122 (2006)). HA-tagged AMPK (AMPK^WT) and its mutant forms (AMPK^KR, AMPK^TA and AMPK^TD) were subcloned into the pUAST vector and microinjected into w^1118 embryos. LKB1^X5, UAS-LKB1, spaghetti-squash^1 (sqh^1), and MRLC^EE (also referred to as sqh^EE) lines were described previously (Jordan et al., J. Cell Biol. 139, 1805-1819 (1997); (Karess et al., Cell 65, 1177-1189 (1991); (Lee et al., Cell Death Differ. 13, 110-1122 (2006)).”

[7] = test system: human MLCK; experiment: In vitro kinase assay, active MLCK with MRLC substrate; format: biochemical; details: 10 μM drug added to reaction solution
Description: as §1, with “strains.” for “strains. The AMPK^G505 fly line with an EP-element inserted at the AMPK locus was obtained from the Genisys Collection of EP lines (GenExel Inc., Korea), and subjected to standard imprecise excision (Lee, et al., FEBS Lett. 550, 5-10 (2003); (Lee et al., Cell Death Differ. 13, 110-1122 (2006)). HA-tagged AMPK (AMPK^WT) and its mutant forms (AMPK^KR, AMPK^TA and AMPK^TD) were subcloned into the pUAST vector and microinjected into w^1118 embryos. LKB1^X5, UAS-LKB1, spaghetti-squash^1 (sqh^1), and MRLC^EE (also referred to as sqh^EE) lines were described previously (Jordan et al., J. Cell Biol. 139, 1805-1819 (1997); (Karess et al., Cell 65, 1177-1189 (1991); (Lee et al., Cell Death Differ. 13, 110-1122 (2006)).”

Phosphorylation of full-length MRLC by AMPK on addition of AMP ([1]; human GST-MRLC substrate): further enhanced
Structure (SMILES): Nc1ncnc2c1ncn2[C@@H]1O[C@H](COP(=O)(O)O)[C@@H](O)[C@H]1O [AMP]

Structure (SMILES): O=CC[C@@H](O)[C@H](O)[C@H](O)CO [2DG, 2-deoxyglucose]
MRLC phosphorylation (pMRLC) in S2 cells [2]: enhanced MRLC phosphorylation
Distribution of villin, CD66/CEA and CD71/transferrin markers ([3]; 50 mM 2DG, 2 hr): became dramatically polarized
Cell shape / actin cytoskeleton polarization and brush border-like structure ([3]; 50 mM 2DG, 2 hr, serum-free media): dramatic change in cell shape to have polarized actin cytoskeleton with a brush border-like structure
Activation of AMPK (pAMPK) ([4]; 50 mM 2DG, indicated time): activation of AMPK
MRLC phosphorylation (pMRLC) in LS174T cells ([4]; 2DG treatment): 2DG-induced phosphorylation of MRLC

Phosphorylation of MRLC by AMPK in presence of inhibitor (32P autoradiography) [1]: inhibited the phosphorylation
Drosophila AMPK phosphorylation of MRLC in presence of drug [5]: specifically inhibited
Human AMPK phosphorylation of MRLC in presence of drug [6]: specifically inhibited
MLCK phosphorylation of MRLC in presence of drug [7]: not
Structure (SMILES): c1cc(-c2cnn3cc(-c4ccc(OCCN5CCCCC5)cc4)cnc23)ccn1 [Compound C]
2DG-induced actin polarization, effect of inhibitor or siRNA ([3]; 2DG 2 hr, Compound C 10 μM 30 min before 2DG, or siRNA transfection, listed as CC): inhibited; also recorded: suppressed
2DG-induced MRLC phosphorylation, effect of inhibitor ([4]; 10 μM Compound C 30 min before 50 mM 2DG): suppressed

Phosphorylation of MRLC by AMPK in presence of inhibitor (32P autoradiography) [1]: did not
Drosophila AMPK phosphorylation of MRLC in presence of drug [5]: not
MLCK phosphorylation of MRLC in presence of drug [7]: specifically inhibited
Structure (SMILES): O=S(=O)(c1cccc2c(I)cccc12)N1CCCNCC1 [ML-7]
